Data as given in US11944626B2, “Small molecule inhibitors of ALDH and uses thereof” (The Regents of the University of Michigan, priority 2016, dated 2024).
Structures can show the parent of a compound that is named as a salt.

Tests used:
[1] = target: T1, ALDH1A1 (Homo sapiens, UniProt P00352); assay: Inhibition of ALDH isoenzymes (NAD(P)H formation at 340 nm, purified recombinant enzyme); assay type: biochemical; conditions: for remaining activity at 20 µM: compound at 20 μM, read-out: ALDH1A1 % Control at 20 μM; for IC50: 100-200 nM enzyme, 200 μM NAD+, 100 μM propionaldehyde, pH 7.5, 25° C.
T1 sequence (P00352 1-501): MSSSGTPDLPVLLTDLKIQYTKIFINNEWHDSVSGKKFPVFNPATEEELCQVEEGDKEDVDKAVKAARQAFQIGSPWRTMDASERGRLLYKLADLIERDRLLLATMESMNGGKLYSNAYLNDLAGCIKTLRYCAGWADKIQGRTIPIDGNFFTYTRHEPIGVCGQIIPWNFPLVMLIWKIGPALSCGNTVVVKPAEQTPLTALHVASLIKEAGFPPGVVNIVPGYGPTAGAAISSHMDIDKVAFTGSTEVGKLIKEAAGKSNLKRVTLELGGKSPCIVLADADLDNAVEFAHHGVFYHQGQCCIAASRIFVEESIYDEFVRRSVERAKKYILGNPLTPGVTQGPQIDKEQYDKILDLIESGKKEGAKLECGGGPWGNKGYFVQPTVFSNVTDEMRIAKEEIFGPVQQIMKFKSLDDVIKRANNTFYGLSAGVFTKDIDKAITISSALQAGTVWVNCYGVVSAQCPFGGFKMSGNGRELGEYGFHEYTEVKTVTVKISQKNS

[2] = target: T2, ALDH1A2 (Homo sapiens, UniProt O94788); assay: as above; assay type: biochemical; conditions: for remaining activity at 20 µM: compound at 20 μM, read-out: ALDH1A2 % Control at 20 μM; for IC50: 100-200 nM enzyme, 200 μM NAD+, 100 μM propionaldehyde, pH 7.5, 25° C.
T2 sequence (O94788 1-518): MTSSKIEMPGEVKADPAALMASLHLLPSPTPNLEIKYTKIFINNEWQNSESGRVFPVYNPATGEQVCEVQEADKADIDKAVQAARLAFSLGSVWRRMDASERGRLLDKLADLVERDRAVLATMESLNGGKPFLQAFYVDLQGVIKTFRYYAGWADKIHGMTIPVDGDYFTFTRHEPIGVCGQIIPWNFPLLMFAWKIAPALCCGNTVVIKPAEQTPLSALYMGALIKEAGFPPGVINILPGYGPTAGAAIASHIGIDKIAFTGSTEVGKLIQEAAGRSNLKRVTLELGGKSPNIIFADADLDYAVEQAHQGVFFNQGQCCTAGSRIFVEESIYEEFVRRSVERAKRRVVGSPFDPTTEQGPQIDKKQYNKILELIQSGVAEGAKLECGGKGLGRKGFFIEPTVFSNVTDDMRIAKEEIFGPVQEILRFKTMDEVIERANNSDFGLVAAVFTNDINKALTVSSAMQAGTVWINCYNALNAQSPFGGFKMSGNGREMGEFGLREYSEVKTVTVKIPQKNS

[3] = target: T3, ALDH1A3 (Homo sapiens, UniProt P47895); assay: as above; assay type: biochemical; conditions: for remaining activity at 20 µM: compound at 20 μM, read-out: ALDH1A3 % Control at 20 μM; for IC50: 100-200 nM enzyme, 200 μM NAD+, 100 μM propionaldehyde, pH 7.5, 25° C.
T3 sequence (P47895 1-512): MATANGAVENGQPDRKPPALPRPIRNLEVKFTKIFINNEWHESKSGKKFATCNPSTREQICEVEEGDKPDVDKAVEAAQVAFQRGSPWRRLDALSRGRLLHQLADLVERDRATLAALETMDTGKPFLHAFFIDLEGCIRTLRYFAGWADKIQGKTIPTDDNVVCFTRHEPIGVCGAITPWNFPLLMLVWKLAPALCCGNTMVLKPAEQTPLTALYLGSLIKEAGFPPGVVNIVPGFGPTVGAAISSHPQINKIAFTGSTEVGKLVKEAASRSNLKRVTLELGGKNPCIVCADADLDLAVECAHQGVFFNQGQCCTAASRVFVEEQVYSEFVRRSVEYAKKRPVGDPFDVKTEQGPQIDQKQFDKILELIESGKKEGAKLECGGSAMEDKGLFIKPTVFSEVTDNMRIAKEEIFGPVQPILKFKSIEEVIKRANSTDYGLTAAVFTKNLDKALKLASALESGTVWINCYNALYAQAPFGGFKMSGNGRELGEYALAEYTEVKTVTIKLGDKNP

[4] = target: T4, ALDH2 (Homo sapiens, UniProt P05091); assay: as above; assay type: biochemical; parameters: key to ALDH2 inhibition at 20 μM (N.I.): N.I.: No inhibition at 20 μM; conditions: compound at 20 μM; for remaining activity at 20 µM: read-out: ALDH2 % Control at 20 μM;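 for all read-outs here: run at 25 °C, started by adding substrate after 2 min preincubation, with 100-200 nM ALDH2, 200 µM NAD+, 100 µM propionaldehyde, 1% DMSO in BES buffer pH 7.5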
T4 sequence (P05091 18-517): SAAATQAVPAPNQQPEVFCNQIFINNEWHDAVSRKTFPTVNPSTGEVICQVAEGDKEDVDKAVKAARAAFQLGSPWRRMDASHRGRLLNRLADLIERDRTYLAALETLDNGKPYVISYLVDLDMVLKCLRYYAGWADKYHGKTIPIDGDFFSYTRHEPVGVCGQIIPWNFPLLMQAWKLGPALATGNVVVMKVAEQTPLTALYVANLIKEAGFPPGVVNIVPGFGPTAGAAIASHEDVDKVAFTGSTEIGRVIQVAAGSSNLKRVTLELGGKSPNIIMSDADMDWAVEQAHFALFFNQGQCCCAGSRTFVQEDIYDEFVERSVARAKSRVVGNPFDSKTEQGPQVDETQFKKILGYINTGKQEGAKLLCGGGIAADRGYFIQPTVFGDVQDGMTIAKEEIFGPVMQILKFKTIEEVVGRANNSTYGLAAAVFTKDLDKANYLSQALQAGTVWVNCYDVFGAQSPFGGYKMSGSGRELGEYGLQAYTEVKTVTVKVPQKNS

[5] = test system: OVSAHO; assay: OVSAHO Cell Viability; assay type: cell-based; conditions: for OVSAHO Cell Viability (30 μM) Total Cell % ctrl / OVSAHO Cell Viability (50 μM) Total Cell % ctrl: total cells

| Structure (SMILES) | remaining activity at 20 µM [1] | remaining activity at 20 µM [2] | remaining activity at 20 µM [3] | remaining activity at 20 µM [4] | also measured |
| --- | --- | --- | --- | --- | --- |
| O=c1c2cn(CC3CNC3)nc2nc(SCc2cccc(F)c2)n1-c1ccccc1 [Example 68, 3-((6-((3-fluorobenzyl)thio)-4-oxo-5-phenyl-4,5-dihydro-2H-pyrazolo[3,4-d]pyrimidin-2-yl)methyl)azetidin-1-ium sulfate] | 14% | 14% | 10% | 93% | OVSAHO Cell Viability (30 μM) Total Cell % ctrl ([5]; 30 μM): 16% ctrl |
| CC(C)CCSc1nc2c(cnn2C)c(=O)n1-c1ccccc1 [Example 38, 6-(isopentylthio)-1-methyl-5-phenyl-1H-pyrazolo[3,4-d]pyrimidin-4(5H)-one] | – | – | – | 96% | IC50 [1]: 1200 nM; IC50 [2]: 940 nM; IC50 [3]: 390 nM; OVSAHO Cell Viability (50 μM) % CD133 + % ctrl ([5]; CD133+ cells): 50 % ctrl; OVSAHO Cell Viability (50 μM) Total Cell % ctrl [5]: 39 % ctrl |
| CCn1cc2c(=O)n(-c3ccccc3)c(SCc3cccc(F)c3)nc2n1 [Example 15, 2-ethyl-6-((3-fluorobenzyl)thio)-5-phenyl-2H-pyrazolo[3,4-d]pyrimidin-4(5H)-one] | – | – | – | 98% | IC50 [1]: 172 nM; IC50 [2]: 600 nM; IC50 [3]: 153 nM; OVSAHO Cell Viability (50 μM) % CD133 + % ctrl ([5]; CD133+ cells): 83 % ctrl; OVSAHO Cell Viability (50 μM) Total Cell % ctrl [5]: 51 % ctrl |
| O=c1c2cn(CC3COC3)nc2nc(OCc2cccc(F)c2)n1-c1ccccc1 [Example 63] | – | – | – | 102% | IC50 [1]: 2280 nM; remaining activity at 5 µM ([2]; compound at 5 μM (footnote *), read-out: ALDH1A2 % Control at 5 μM): 43%; remaining activity at 5 µM ([3]; compound at 5 μM (footnote *), read-out: ALDH1A3 % Control at 5 μM): 61%; OVSAHO Cell Viability (30 μM) % CD133 + % ctrl ([5]; 30 μM, CD133+ cells): 81% ctrl; OVSAHO Cell Viability (30 μM) Total Cell % ctrl ([5]; 30 μM): 18% ctrl |
| Cc1ccccc1-n1c(OCc2cc3ccccc3s2)nc2c(cnn2C)c1=O [Example 40, 6-(benzo[b]thiophen-2-ylmethoxy)-1-methyl-5-(o-tolyl)-1H-pyrazolo[3,4-d]pyrimidin-4(5H)-one] | – | – | – | – | IC50 [1]: 1700 nM; IC50 [2]: > 10000 nM; IC50 [3]: > 10000 nM; ALDH2 inhibition at 20 μM (N.I.) [4]: N.I.; OVSAHO Cell Viability (50 μM) % CD133 + % ctrl ([5]; CD133+ cells): 50 % ctrl; OVSAHO Cell Viability (50 μM) Total Cell % ctrl [5]: 15 % ctrl |
| CC(Sc1nc2c(cnn2C2COC2)c(=O)n1-c1ccccc1)c1ccccc1 (centres unmarked) [Example 73, 1-(oxetan-3-yl)-5-phenyl-6-((1-phenylethyl)thio)-1H-pyrazolo[3,4-d]pyrimidin-4(5H)-one] | 3% | 0% | 1% | 95% | – |
| CC(Sc1nc2c(cnn2C)c(=O)n1-c1ccccc1)c1cccc(F)c1 (centres unmarked) [Example 71, 6-((1-(3-fluorophenyl)ethyl)thio)-1-methyl-5-phenyl-1H-pyrazolo[3,4-d]pyrimidin-4(5H)-one] | -4% | -8% | -10% | 94% | – |
| Cn1ncc2c(=O)n(C3CCC3)c(SCc3cccc(F)c3)nc21 [Example 46, 5-cyclobutyl-6-((3-fluorobenzyl)thio)-1-methyl-1H-pyrazolo[3,4-d]pyrimidin-4(5H)-one] | 28% | 14% | 73% | 96% | – |
| Cn1ncc2c(=O)n(-c3ccccc3)c(SC3CCCCC3=O)nc21 (centres unmarked) [Example 76, 1-methyl-6-((2-oxocyclohexyl)thio)-5-phenyl-1H-pyrazolo[3,4-d]pyrimidin-4(5H)-one] | 16% | 25% | 14% | 94% | – |
| Cn1ncc2c(=O)n(-c3ccccc3)c(SCc3cccc(C#N)c3)nc21 [Example 53, 3-(((1-methyl-4-oxo-5-phenyl-4,5-dihydro-1H-pyrazolo[3,4-d]pyrimidin-6-yl)thio)methyl)benzonitrile] | 24% | 30% | 32% | 95% | – |
| Cn1ncc2c(=O)n(-c3ccccc3)c(SC3CCCC3=O)nc21 (centres unmarked) [Example 75, 1-methyl-6-((2-oxocyclopentyl)thio)-5-phenyl-1H-pyrazolo[3,4-d]pyrimidin-4(5H)-one] | 23% | 46% | 64% | 95% | – |
| Cn1ncc2c(=O)n(-c3ccccc3)c(COc3cccc(F)c3)nc21 [Example 25, 6-((3-fluorophenoxy)methyl)-1-methyl-5-phenyl-1H-pyrazolo[3,4-d]pyrimidin-4(5H)-one] | 24% | 65% | 83% | 101% | – |
| Cn1ncc2c(=O)n(C3CCCC3)c(SCc3cccc(F)c3)nc21 [Example 45, 5-cyclopentyl-6-((3-fluorobenzyl)thio)-1-methyl-1H-pyrazolo[3,4-d]pyrimidin-4(5H)-one] | 46% | 37% | 95% | 117% | – |
| Cn1ncc2c(=O)n(-c3ccccc3)c(SCc3ccccc3)nc21 [Example 55, 6-(benzylthio)-1-methyl-5-phenyl-1H-pyrazolo[3,4-d]pyrimidin-4(5H)-one] | – | – | – | 91% | IC50 [1]: 387 nM; IC50 [2]: 139 nM; IC50 [3]: 203 nM |
| Cn1ncc2c(=O)n(-c3ccccc3)c(SC3CCCCC3)nc21 [Example 72, 6-(cyclohexylthio)-1-methyl-5-phenyl-1H-pyrazolo[3,4-d]pyrimidin-4(5H)-one] | 26% | 34% | 24% | 96% | – |
| Cn1ncc2c(=O)n(-c3ccccc3)c(CNCc3cccc(F)c3)nc21 [Example 26, 6-(((3-fluorobenzyl)amino)methyl)-1-methyl-5-phenyl-1H-pyrazolo[3,4-d]pyrimidin-4(5H)-one] | 28% | 77% | 74% | 98% | – |
| Cn1ncc2c(=O)n(-c3ccccc3)c(SCc3ccc(C=O)cc3)nc21 [Example 59, 4-(((1-methyl-4-oxo-5-phenyl-4,5-dihydro-1H-pyrazolo[3,4-d]pyrimidin-6-yl)thio)methyl)benzaldehyde] | – | – | – | 89% | ALDH1A1: compound is a substrate ([1]; result in words in place of IC50): substrate; ALDH1A2: compound is a substrate ([2]; result in words): substrate; IC50 [3]: 236 nM |
